How the values were obtained:
[1] = tested on: HECA-452 epitopes on PSGL-1; assay: Western blot of HECA-452 epitopes on PSGL-1 of CLA+ T-cells; assay type: cell-based, human
Experimental: For analysis of CLA expression on T-cells treated with glycoconjugate modifiers, CLA^+ T-cells were first pretreated with neuraminidase (0.1 U/ml at 37° C. for 1 h) to eliminate functional CLA and cleave all HECA-452 reactive epitopes from the cell surface (35–38). Since we wanted to investigate whether these compounds directly affected CLA expression and function, neuraminidase pretreatment followed by incubations with glycosylation modifiers allowed for examination of de novo synthesized CLA/HECA-452 epitopes re-expressed on the cell surface. After neuraminidase digestion, cells were then incubated with tunicamycin (0.02 mM) (an inhibitor of GlcNAc phosphotransferase, the initial step of N-glycosylation), swainsonine (0.23 mM) (an inhibitor of α-mannosidase II and complex-type N-glycosylation), 4-F-GlcNAc (0.05 mM) (putative inhibitor of poly-N-acetyllactosamine biosynthesis), BAG (an inhibitor of O-glycan biosynthesis) (<2 mM) or GlcNAc (5 mM) (negative control, naturally-occurring metabolic counterpart of 4-F-GlcNAc)for 30 h in the presence of human recombinant IL-2. […] Concentrations for BAG were selected based on maximal O-glycosylation inhibitory effects at non-growth inhibitory concentrations as previously reported (39). To determine a suitable concentration of 4-F-GlcNAc for examining glycoconjugate-modifying effects without influencing cell growth or protein synthesis, we performed preliminary growth inhibitory experiments of cells incubated with 4-F-GlcNAc for 2 cell doublings (˜36 h) at 37° C. (cell viability assessed by Trypan-blue exclusion).
For lysate preparation, cells (including radiolabeled cells) were washed 3× in ice cold PBS and lysed in buffer containing 150 mM NaCl, 50 mM Tris-HCl pH 7.4, 1 mM EDTA, 0.02% NaAzide, 20 μg/ml PMSF, Complete™ protease inhibitors cocktail tablets (Roche Molecular Biochemicals) and 2% NP-40 (250 μl/10^8 cells). Following 2 h incubation on ice, insoluble cellular debris was pelleted by centrifugation for 30 min at 10,000×g at 4° C. and solubilized protein lysate was collected and quantified by Bradford protein assay (Sigma Chemical). SDS was added to a final concentration of 1% in lysate preparations utilized for immunoprecipitation experiments.
For SDS-PAGE and Western blotting, cell lysates, membrane proteins or immunoprecipitates were diluted and boiled in reducing sample buffer, and separated on 7–9% SDS-PAGE gels. Resolved protein was transferred to Sequi-blot™ PVDF membrane (Bio-Rad, Inc., Hercules, Calif.) and blocked with FBS for 1 hr at RT. Blots were incubated with rat IgM anti-human CLA HECA-452 (1 μg/ml), mouse IgG anti-human PSGL-1 moAbs PL-2 (1 μg/ml), 203, 4F9 and 4D8 (1 μg each/ml), or mouse IgG anti-human CD43 L60 (1 μg/ml) for 1 hr at RT. Isotype control immunoblots using either rat IgM or mouse IgG were performed in parallel to evaluate non-specific reactive proteins. After three washes with PBS/0.1%Tween-20 (10 min/wash), blots were incubated with the respective secondary Ab, AP-conjugated goat anti-rat IgM (1:400) or goat anti-mouse IgG (1:8000). AP substrate, Western Blue® (Promega, Madison, Wis.) was then added to develop blots.
Cells were then re-cultured in the presence of glycosylation inhibitor, diluent control (PBS) or molecular control (GlcNAc) for 30 hr and then harvested for CLA expression and functional analysis. […] To assess the duration of anti-carbohydrate effects on HECA-452 expression on PSGL-1, cells treated with 4-F-GlcNAc for 30 h and were then re-cultured in non-4-F-GlcNAc-containing medium for 72 h.

[2] = tested on: α-mannose (ConA staining); assay type: cell-based, human; settings: compared with PBS or GlcNAc treatments
Experimental: (§1) For lectin blotting, cell lysates (25 μg/spot) were spotted onto methanol-permeabilized PVDF membrane and blocked in FBS for 1 h at RT. Blots were then probed with AP-Canavalia ensiformis agglutinin (ConA) (2.0 μg/ml PBS; specificity: α-mannose), AP-Triticum vulgaris (Wheat germ) agglutinin (WGA) (0.5 μg/ml PBS; specificity: terminal GlcNAc or GlcNAcβ1,4GlcNAc) or AP-Lycopersicon esculentum (tomato lectin) agglutinin (LEA) (1.0 μg/ml PBS; specificity: (Galβ1,4GlcNAc)n) for 1 h at RT (All lectins from EY Labs., Inc., San Mateo, Calif.). After washing 3× in PBS/0.1% Tween-20 and 1× in PBS (10 min each), blots were developed with Western Blue®.
(§2) To analyze and identify the glycan modifications on CLA^+ T-cells treated with 4-F-GlcNAc, lectin blotting experiments were performed with ConA (Specificity: α-mannose), WGA (Specificity: terminal GlcNAc or GlcNAcβ1,4GlcNAc) and LEA (Specificity: {Galβ1,4GlcNAc}n).

[3] = tested on: L-selectin ligand activity of human CLA+ T-cells; assay: Parallel-plate flow chamber, CLA+ T-cell rolling on L-selectin chimera; assay type: cell-based
Experimental: (§3) Tethering and rolling of human T-cells on recombinant human E- and P-selectin-Ig chimera (provided by Dr. Robert Fuhlbrigge, Harvard Medical School) and human L-selectin-Ig (gift from Dr. Ray Camphausen, Wyeth/Genetics Institute, Inc., Cambridge, Mass.) were analyzed in the parallel-plate flow chamber under physiologic shear stress conditions (3). To prepare E- and P-selectin-Ig chimera spots, protein A (300 μg/15 μl 0.1M NaHCO3) was adsorbed to Ten-twenty-nine™ Petri dishes for 2 h at 37° C. Human serum albumin ([…] PBS) then added and incubated for 2 h at 37° C. to block non-specific binding sites. E-selectin-Ig (50 ng/50 μl PBS) or P-selectin-Ig (50 ng/50 μl PBS) solutions was pipetted directly over the pre-existing protein A spots for 18 h at 4° C. To prepare L-selectin-Ig spots, L-selectin-Ig (300 ng/15 μl PBS) or isotype control human IgG (300 ng/15 μl) were adsorbed directly to plastic (non-protein A-coated) for 18 h at 4° C. and blocked in 100% FBS for 2 h at 4° C.
(§4) CLA^+ T-cells or freshly isolated PBL were treated with neuraminidase and metabolic glycosylation inhibitors or with protease (bromelain) as described above, washed twice in HBSS, suspended at 2×10^6/ml in HBSS/10 mM HEPES/2 mM CaCl2 (H/H/Ca^++) and infused into the chamber over selectin chimeras. Protease treatment was performed to control for residual E-selectin activity not attributable to the expression of CLA on a protein scaffold. Cell tethering was permitted at 0.6 dynes/cm^2 for 1 min, then stepwise increments in shear stress every 15 sec were employed to a final shear stress level of 60 dynes/cm^2. The number of cells rolling/viewing field (at 100× magnification) was quantified at each level of shear stress in triplicates for a minimum of three experiments. […] Negative control experiments were performed in parallel, wherein cell binding was examined in H/H adhesion assay medium containing 5 mM EDTA as well as assaying cell binding to human IgG isotype control.
(§5) Utilizing the parallel-plate flow chamber under physiologic shear stress conditions, E-, P- and L-selectin ligand activities of human CLA^+ T-cells treated were analyzed in an identical manner as cells prepared for Western blotting and autoradiography studies.

[4] = tested on: (Galβ1,4GlcNAc)n (LEA staining); assay: Lectin blot with LEA of CLA+ T-cell lysates; assay type: cell-based, human; settings: compared with PBS or GlcNAc treatments
Experimental: as §1, §2

[5] = tested on: E-selectin ligand activity of CLA+ T-lymphocytes; assay: Parallel-plate flow chamber, CLA+ T-cell tethering and rolling on E-selectin chimera; assay type: cell-based, human
Experimental: (§6) To analyze the affects of 4-F-GlcNAc on the function of CLA on human T-cells, we examined the ability of 4-F-GlcNAc-treated (0.05, 0.1, 0.5 mM for 30 hrs) CLA-+ T-cells cultures to engage with immobilized E- and P-selectin chimera in the parallel-plate flow chamber. As described for flow cytometric analyses (Example 13), cells were first pretreated with neuraminidase to remove terminal sialic acid residues required for HECA-452 reactivity and for E- and P-selectin ligand activity of CLA. This approach allowed for the assessment on de novo synthesized CLA molecules.
as §3, §4, §5

[6] = tested on: P-selectin ligand activity of CLA+ T-lymphocytes; assay: Parallel-plate flow chamber, CLA+ T-cell tethering and rolling on P-selectin chimera; assay type: cell-based, human
Experimental: as §6, §3, §4, §5

[7] = previous studies; cited from earlier work
[8] = tested on: human ovarian, A121, tumor cells; settings: cited from earlier work
[9] = tested on: panel of human tumor cell lines as well as normal endothelial cells; assay: Growth inhibition (IC50) of human tumor cell lines and normal endothelial cells; assay type: cell-based; settings: newly synthesized compounds compared with compounds synthesized by the original method
From the text: Before conducting experiments with newly synthesized 3- and 4-F-GlcNAc the effects of 3- and 4-F-GlcNAc on the growth of a panel of human tumor cell lines as well as normal endothelial cells (i.e. IC50 values) were first determined and compared with the original growth inhibitory action (9 Bernacki, R. J. et al. (1977) J. Supra. Stru., 7:235–250; 10 Sharma, M. and W. Korytnyk (1980) Carbohyd. Res., 79:39–51;11 Sharma, M. et al. (1990). Carbohyd. Res., 198:205–22).

| Compound | de novo synthesized HECA-452 epitopes on PSGL-1 (Western blot) [1] | effects on HECA-452 expression ([1]; concentrations below 1.0 mM, preliminary, data not shown) | ConA staining of lysates [2] | rolling adhesions on L-selectin chimera [3] | LEA staining of lysates [4] | rolling adhesions on E-selectin chimera [5] | rolling adhesions on P-selectin chimera [6] | dose limiting toxicity [7] [mg/kg×6 days] | incorporation of radiolabeled sugar precursors [8] | IC50 values, growth of tumor cell lines and normal endothelial cells [9] |
| --- | --- | --- | --- | --- | --- | --- | --- | --- | --- | --- |
| CC(=O)N[C@H]1C(OCc2ccccc2)O[C@H](CO)[C@H](O)[C@@H]1O (stereo partly shown) [BAG, benzyl-O-N-acetylgalactosamide] | marked reduction | minimal effects | no effect | significant reductions | did not affect | significant reductions | significant reductions | – | – | – |
| CC(=O)N[C@H]1C(OC(C)=O)O[C@H](COC(C)=O)[C@@H](OC(C)=O)[C@@H]1F (stereo partly drawn) [3-F-GlcNAc, 2-acetamido-2-deoxy-1,4,6-tri-O-acetyl-3-deoxy-3-fluoro-D-glucopyranose] | – | – | – | – | – | – | – | ~250 | conspicuous reductions | identical to those that were previously described |
